Reference: US20240398817A1, “CARDIO- AND RENOSAFE ANTIDIABETIC THERAPY” (priority 2018, published 2024)

System: patients with type 2 diabetes at high vascular risk
Assay: Cardiovascular and Renal Outcomes Trial: linagliptin 5 mg once daily vs placebo on top of standard of care
Assay type: in vivo
Protocol: The effect of linagliptin on cardiovascular risk in adult patients with type 2 diabetes mellitus and with increased CV risk evidenced by a history of established macrovascular or renal disease (e.g. as defined herein) was evaluated in a multi-center, multi-national, randomized, double-blind parallel group trial. The trial compared the risk of experiencing a major adverse cardiovascular event (MACE) between linagliptin and placebo when these were added to and used concomitantly with standard of care treatments for diabetes (HbA1c), cardiovascular risk factors and renal disease.
The primary endpoint in this trial was the time to first occurrence of three point (3P) MACE. A major adverse cardiac event was defined as a cardiovascular death or a nonfatal myocardial infarction (MI) or a nonfatal stroke. The statistical analysis plan tested for non-inferiority for the occurrence of (3P) MACE. […] The secondary endpoint was a renal composite, defined as renal death or sustained end stage renal disease or sustained decrease of 40% or more in eGFR.
Type 2 diabetes patient with insufficient glycemic control (naïve or pre-treated with any antidiabetic background medication, excluding treatment with GLP-1 receptor agonists, DPP-4inhibitors or SGLT-2 inhibitors if ≥consecutive 7 days, e.g. having HbA1c 6.5-10%), and high risk of cardiovascular events, e.g. defined by: • albuminuria (micro or macro) and previous macrovascular disease: e.g. defined according to Condition I as indicated below; • and/or • impaired renal function: e.g. as defined according to Condition II as indicated below;
Background and aims: People with type 2 diabetes (T2D) are at increased risk for hospitalization for heart failure (hHF), particularly in the setting of concomitant cardiovascular (CV) and/or kidney disease. […] Here we present analyses of HF outcomes with the DPP-4 inhibitor linagliptin (LINA) vs. placebo (PBO) from a Cardiovascular and Renal Outcomes Trial assessing cardiovascular safety and renal microvascular outcome in patients with type 2 diabetes at high vascular risk, a large CV outcomes trial that enrolled participants with T2D at high risk for hHF due to concomitant CV and/or chronic kidney disease. Materials and methods: People with T2D and concomitant CV and/or kidney disease were randomized to receive LINA 5 mg, or PBO once daily (1:1), on top of standard of care. All hHF, CV outcomes, and deaths were centrally adjudicated, with individual and composite HF-related outcomes analyses comparing LINA vs. placebo. Investigator-reported HF-related adverse events, whether or not confirmed by adjudication, were also analyzed. A Cox proportional hazards model adjusting for region and history of HF was used for analyses of first events. Recurrent hHF events were analyzed using a negative binomial model.
Methods: The present Cardiovascular and Renal Outcomes Trial randomized people with T2D and i) concomitant CV disease with UACR >30 mg/g or ii) prevalent CKD (i.e. GFR <45 ml/min/1.73m2 and/or UACR >200 mg/g) to receive the DPP-4 inhibitor linagliptin (5 mg) or placebo once daily in a double-blind fashion. The primary CV endpoint was 3P-MACE, with a key secondary kidney endpoint (adjudicated ESKD, renal death, or sustained ≥40% decrease in eGFR from baseline) and other renal outcomes (including albuminuria and eGFR slope) also assessed. Subgroups were assessed by baseline kidney function (eGFR ≥/<45 ml/min/1.73m2and eGFR ≥/<30, 45 or 60 ml/min/1.73m2).
Adults with type 2 diabetes, HbA1c 6.5-10.0% inclusive, and high CV risk were eligible for inclusion. […] Macrovascular disease eligibility criteria was based on documented and confirmed history of myocardial infarction, coronary artery disease, stroke, carotid artery disease, or peripheral artery disease. Participants with end-stage kidney disease (ESKD), defined as eGFR <15 or requiring maintenance dialysis, were excluded.

[1] = eGFR ≥45 to <60 mL/min/1.73 m^2

Structure (SMILES): CC#CCn1c(N2CCC[C@@H](N)C2)nc2c1c(=O)n(Cc1nc(C)c3ccccc3n1)c(=O)n2C [Linagliptin, 1-[(4-methyl-quinazolin-2-yl)methyl]-3-methyl-7-(2-butyn-1-yl)-8-(3-(R)-amino-piperidin-1-yl)-xanthine]
- Renal death, sustained ESKD, or ≥ doubling of se-creatinine: n (eGFR ≥ 45 (n = 3979)): 54
- Renal death, sustained ESKD, or ≥ doubling of se-creatinine: rate/100 patient-years (eGFR ≥ 45 (n = 3979)): 1.38 per 100 patient-years
- 3-point MACE: hazard ratio vs placebo [1]: 1.12
- 3-point MACE: patients with event/patients analyzed [1]: 81/690
- Key secondary kidney outcome: hazard ratio vs placebo [1]: 0.94
- Key secondary kidney outcome: patients with event/patients analyzed [1]: 51/690
- 3-point MACE: hazard ratio vs placebo (eGFR ≥60 mL/min/1.73 m^2): 0.96
- 3-point MACE: patients with event/patients analyzed (eGFR ≥60 mL/min/1.73 m^2): 103/1294
- Key secondary kidney outcome: hazard ratio vs placebo (eGFR ≥60 mL/min/1.73 m^2): 1.46
- Key secondary kidney outcome: patients with event/patients analyzed (eGFR ≥60 mL/min/1.73 m^2): 54/1294
- Non-fatal MI as component of 3-point MACE primary outcome: % (first event of composite): (4.4) %
- Non-fatal MI as component of 3-point MACE primary outcome: no. (first event of composite): 154
- Non-fatal stroke as component of 3-point MACE primary outcome: % (first event of composite): (1.7) %
- Non-fatal stroke as component of 3-point MACE primary outcome: no. (first event of composite): 59
- 4-point MACE (3-point MACE or hospitalization for unstable angina): no. (in vivo): 463
- 4-point MACE: % (in vivo): (13.3) %
- 4-point MACE: hazard ratio vs placebo (in vivo): 1.00
- 4-point MACE: rate/1000 patient-years (in vivo): 62.0 per 1000 patient years
- Acute pancreatitis, adjudication confirmed: % (in vivo): 0.3%
- Acute pancreatitis, adjudication confirmed: N (in vivo): 9^1
- Adverse events leading to discontinuation: % (in vivo): 10.3%
- Adverse events leading to discontinuation: N (in vivo): 359
- Albuminuria progression: rate/100 patient-years (in vivo): 21.36 per 100 patient-years
- Albuminuria progression: rate/1000 patient-years (in vivo): 213.6 per 1000 patient years
- All cancers (malignancies): % (in vivo): 3.3%
- All cancers (malignancies): N (in vivo): 116
- Angioedema events with concomitant ACE/ARB use at baseline: % (in vivo): 0.45%
- Angioedema events with concomitant ACE/ARB use at baseline: N (in vivo): 13
- Any adverse events: % (in vivo): 77.2%
- Changes in body weight or waist circumference vs placebo, in words (in vivo): No clinically meaningful differences
- Changes in weight, systolic and diastolic blood pressure and LDL/HDL cholesterol vs placebo, in words (in vivo): no different between groups
- Chronic pancreatitis, adjudication confirmed: % (in vivo): 0.1%
- Chronic pancreatitis, adjudication confirmed: N (in vivo): 2
- Colon cancer: % (in vivo): 0.2%
- Colon cancer: N (in vivo): 6
- Composite microvascular endpoint (renal and eye outcomes): number of patients (in vivo): 785
- Composite microvascular endpoint: hazard ratio (95% CI) vs placebo (in vivo): 0.86
- Composite microvascular endpoint: rate/1000 patient-years (in vivo): 221.4 per 1000 patient years
- Composite ocular endpoint: hazard ratio vs placebo (in vivo): 0.73
- Composite ocular endpoint: number of patients (in vivo): 36
- Composite ocular endpoint: rate/1000 patient-years (in vivo): 4.7 per 1000 patient years
- Composite renal endpoint 2 (50% eGFR) and composite renal endpoint 3 (30% eGFR with eGFR <60) vs placebo, in words (in vivo): No significant difference
- Confirmed hypoglycemic adverse events with plasma glucose <54 mg/dl or severe event: % (in vivo): 15.9%
- Confirmed hypoglycemic adverse events with plasma glucose <54 mg/dl or severe event: N (in vivo): 557
- Contributing to composite microvascular outcome: patients with retinal laser coagulation or anti-VEGF injection for diabetic retinopathy, % (in vivo): 0.2%
- Contributing to composite microvascular outcome: patients with sustained >50% eGFR decrease, % (in vivo): 0.6%
- Contributing to composite microvascular outcome: patients with sustained ESKD, % (in vivo): 0.3%
- Contributing to composite microvascular outcome: patients with vitreous haemorrhage, % (in vivo): 0.1%
- Contributing to composite ocular outcome: patients with anti-VEGF injection for diabetic retinopathy, % (in vivo): 0.3%
- Contributing to composite ocular outcome: patients with diabetes related blindness, % (in vivo): 0.1%
- Contributing to composite ocular outcome: patients with retinal laser coagulation, % (in vivo): 0.2%
- Contributing to composite ocular outcome: patients with vitreous haemorrhage, % (in vivo): 0.5%
- Coronary revascularization procedure: % (in vivo): (4.6) %
- Coronary revascularization procedure: hazard ratio vs placebo (in vivo): 1.07
- Coronary revascularization procedure: no. (in vivo): 160
- Coronary revascularization procedure: rate/1000 patient-years (in vivo): 21.2 per 1000 patient years
- Difference between treatment groups in HbA1c changes from baseline over time, in words (in vivo): significant up to the Week 132 visit
- Fasting plasma glucose (FPG) vs placebo, in words (in vivo): significant differences observed between the treatment groups up to Week 84
- Fatal myocardial infarction: % (in vivo): (0.3) %
- Fatal myocardial infarction: hazard ratio vs placebo (in vivo): 0.78
- Fatal myocardial infarction: no. (in vivo): 11
- Fatal myocardial infarction: rate/1000 patient-years (in vivo): 1.4 per 1000 patient years
- Fatal or non-fatal myocardial infarction: % (in vivo): (4.7) %
- Fatal or non-fatal myocardial infarction: hazard ratio vs placebo (in vivo): 1.12
- Fatal or non-fatal myocardial infarction: no. (in vivo): 165
- Fatal or non-fatal myocardial infarction: rate/1000 patient-years (in vivo): 21.8 per 1000 patient years
- Fatal or non-fatal stroke: % (in vivo): (2.3) %
- Fatal or non-fatal stroke: hazard ratio vs placebo (in vivo): 0.91
- Fatal or non-fatal stroke: no. (in vivo): 81
- Fatal or non-fatal stroke: rate/1000 patient-years (in vivo): 10.6 per 1000 patient years
- Fatal stroke: % (in vivo): (0.5) %
- Fatal stroke: hazard ratio vs placebo (in vivo): 1.05
- Fatal stroke: no. (in vivo): 17
- Fatal stroke: rate/1000 patient-years (in vivo): 2.2 per 1000 patient years
- Gastric cancer: % (in vivo): 0.0%
- Gastric cancer: N (in vivo): 0
- Hospitalization for heart failure or cardiovascular death: % (in vivo): (11.6) %
- Hospitalization for heart failure or cardiovascular death: hazard ratio vs placebo (in vivo): 0.94
- Hospitalization for heart failure or cardiovascular death: no. (in vivo): 406
- Hospitalization for heart failure or cardiovascular death: rate per 100 person-years (in vivo): 5.37 per 100 person-years
- Hospitalization for heart failure or cardiovascular death: rate/1000 patient-years (in vivo): 53.7 per 1000 patient years
- Hospitalization for unstable angina: % (in vivo): (1.2) %
- Hospitalization for unstable angina: hazard ratio vs placebo (in vivo): 0.87
- Hospitalization for unstable angina: no. (in vivo): 42
